{
  "source": "patent US20070020193A1",
  "about": "“Dronabinol compositions and methods for using same” (priority 2005, published 2007)",
  "key": {"[1]": {"system": "healthy subjects", "test": "Example 1: heart rate and blood pressure", "format": "in vivo, human", "source_text": "Heart rate, conjunctiva congestion, subjective ratings, and a battery of computerized cognitive tests were used to evaluate pharmacodynamics. FIG. 11a-b are plots of mean baseline adjusted heart rate for Groups I-III. FIG. 12a-c show plots of placebo corrected diastolic blood pressure. […] FIG. 14a-b present comparisons of Active versus Placebo alertness and a plot of change in self-rated alertness. FIG. 15a-b show comparisons of Active v. Placebo for calmness and a plot of change in self-rated calmness.\nFor Examples 1 and 2: Heart rate was obtained from the blood pressure recordings or using telemetry.\nAbsolute values of heart rate and conjunctive congestion scores were used to calculate changes from baseline.\nFor Example 1: All pharmacodynamic variables were evaluated using descriptive statistics for all study evaluations."}, "[2]": {"test": "Example 1 single rising dose inhaled delta-9-THC study: plasma pharmacokinetics", "procedure": "A randomized, double blind, placebo controlled, three way crossover, single rising dose human clinical study in two sequential groups (Groups I and II) of nine young healthy male subjects (18-45 years of age and body mass index (BMI) of 20-26 kg/m^2) of a metered dose inhalation composition according to one embodiment the present invention was conducted. Each subject received two ascending single doses of inhaled delta-9-THC and one single dose of inhaled placebo according to a three-way crossover balanced incomplete block design. The administered composition is detailed in Table 1. Composition I provides 0.3 mg per actuation, while Composition II provides 1.2 mg per actuation.\nEach sequential dose level or period was separated by a washout period of two weeks, during which an interim safety and pharmacokinetic analysis was performed. A third group (Group III) of nine elderly healthy male and female subjects (65-80 years old and BMI 18-30 kg/m^2) was added after completion of the sixth study period to participate in a single treatment period. […] Five dose levels were evaluated: 0.3 mg, 1.2 mg, and 2.4 mg in Group I, 3.6 mg, 7.2 mg, and 9.6 mg in Group II, and 3.6 mg in Group III. Subjects were confined to the study center from the day prior to dosing until the 48 hour blood sample. Subjects returned to the center for 72, 96 and 120 hour pharmacokinetic samples. Various pharmacokinetic and pharmacodynamic measurements and sampling were taken according to the Assessment Flow Charts in FIG. 1 and FIG. 2. Safety was measured by monitoring adverse events, physical examination, clinical laboratory and pulmonary function tests, vital signs, 12 lead ECG, and telemetry.\nSafety, pharmacokinetic and pharmacodynamic variables were estimated. Plasma concentrations of delta-9-THC (THC), 11-hydroxy-tetrahydrocanabinol (11-OH-THC) and delta-9-tetrahydrocannbinol-carboxylic acid (THC-COOH) were determined for pharmacokinetic analysis.\nWhole blood samples were collected according to the assessment flowchart in EDTA tubes through venepuncture or indwelling catheter. Samples were immediately placed on ice and subsequently centrifuged within 30 minutes at 1,500 g for 10 minutes. Plasma was transferred into a 5 ml screw cap polypropylene tube, stoppered and stored at below minus 20° C. until transfer to the analytical laboratory for analysis. […] The measurement ranges were 0.05-30 ng/ml for delta-9-THC, 0.04-30 ng/ml for 11-OH-THC, and 0.25-10 ng/ml for THC-COOH.\nNumber of subjects, mean, standard deviation, coefficient variable (%) and geometric mean were calculated for all pharmacokinetic parameters.\nFor Example 1: A mixed ANOVA model with group and dose fixed effect and subject within group by dose as random effect was performed on the logarithms of the dose normalized pharmacokinetic parameters AUC, AUC0-t and Cmax. The overall treatment effect was tested by conventional F-test with Satterthwaites correction. Dose proportionality was tested using Helmert Contrasts and Reverse Helmert Contrasts. The within and between subject coefficient of variances were calculated from the estimated covariance parameters. Per dose level geometric means with 90% confidence interval were calculated for the dose-normalized values from the least squared means analysis outcomes. The difference between young and elderly subjects was explored using a one-way ANOVA."}, "[3]": {"system": "healthy subjects", "test": "Example 1: subjective drug ratings and ARCI", "format": "in vivo, human", "source_text": "The subject responded to each of three questions on a scale of 0 to 100 with 0 meaning no effect/not at all and 100 meaning maximum/very much:\nHow much of a drug effect or high do you feel?\nHow much do you like the drug?\nHow much do you dislike the drug?\nThe ARCI is a true/false questionnaire developed to specifically measure the subjective effects of drugs which have diverse pharmacological actions. The […] (PCAG), morphine-benzedrine, and lysergic acid diethylamide subgroup scales were used to assess sedation, euphoria, and dysphoria. Questions from the marijuana subscale were also included.\nSubjective drug ratings and cognitive measurement scores were presented as absolute values only with separate tables summarizing gender difference and age differences."}, "[4]": {"system": "healthy subjects", "test": "Example 2: conjunctiva congestion rating", "format": "in vivo, human", "source_text": "Conjunctiva Congestion was rated by a trained observer on a scale of 0-3 based on the blood vessels present as follows:\n0—None (The white of the eye was not affected)\n3—Considerable (The compete white of the eye is red caused by a pattern of bigger vessels. This is associated with complaints.)\nChanges from baseline in conjunctiva congestion and heart rate were compared for all time-points measured, and summarized using descriptive statistics. Subjective ratings were individually tabulated and sorted by treatment group, subject number, and time, and summarized using descriptive statistics. Separate tables were provided to summarize differences between males and females if applicable. Pharmacodynamic assessments were compared with delta-9 THC and 11-OH-THC blood concentrations and summarized using descriptive statistics."}, "[5]": {"system": "healthy subjects", "test": "Example 2: pulmonary function tests", "format": "in vivo, human", "procedure": "Adverse events were recorded based on original descriptions from subject responses to queries. Complete medical histories and physical examinations were conducted. Vital signs were monitored, ECGs were recorded along with pulmonary function tests and laboratory examinations.\nListings of values for each subject were presented with abnormal or out of range values for vital signs, laboratory assays, ECGs, pulmonary function tests, and physical examinations. Descriptive statistics (n, mean, standard deviation (SD), minimum, median, maximum) for all clinical laboratory safety parameters, ECGs, pulmonary function tests, and vital signs were provided. ECGs and physical examinations were to be summarized in shift tables to show changes from baseline between normal and abnormal findings."}},
  "data": [
    {"smiles": "CCCCCc1cc(O)c2c(c1)OC(C)(C)[C@@H]1CCC(C)=C[C@@H]21", "note": "[delta-9-THC, delta-9-tetrahydrocannabinol]", "values": [
      {"measurement": "effect on heart rate", "setting": "[1]; 0.3 mg dose, Groups I-II", "value": "did not differ markedly from that observed with placebo"},
      {"measurement": "duration of heart rate increase", "setting": "[1]; 1.2 mg", "value": 5, "unit": "min"},
      {"measurement": "increase in heart rate relative to placebo", "setting": "[1]; 1.2 mg, 5 minutes after dosing", "value": "approximately 12 bpm"},
      {"measurement": "duration of heart rate increase", "setting": "[1]; 2.4 mg", "value": "about 15 minutes"},
      {"measurement": "largest effect on heart rate, increase compared to placebo", "setting": "[1]; 7.2 mg", "value": "about 46 bpm"},
      {"measurement": "duration of heart rate increase", "setting": "[1]; 9.6 mg", "value": "about 2.0 hours"},
      {"measurement": "time of return of heart rate to normal after dosing", "setting": "[1]; Group III (elderly, 3.6 mg)", "value": 5, "unit": "min"},
      {"measurement": "heart rate increase", "setting": "[1]; Group III (elderly, 3.6 mg), at 2 minutes", "value": 10, "unit": "bpm"},
      {"measurement": "placebo corrected diastolic and systolic blood pressure", "setting": "[1]; across the dose levels investigated", "value": "no clear dose-relationship"},
      {"measurement": "duration of effect on heart rate", "setting": "[1]; after single dosing", "value": "approximately 2 hours"},
      {"measurement": "time of maximum effect on heart rate", "setting": "[1]; after single dosing", "value": "2 to 5", "unit": "min"},
      {"measurement": "placebo corrected heart rate", "setting": "[1]; between 0.17 and 5 hours post dose", "value": "dose related increase"},
      {"measurement": "Cmax and AUC versus dose", "setting": "[2]; 7.2 and 9.6 mg doses", "value": "less than proportional increase"},
      {"measurement": "Cmax and AUC versus dose", "setting": "[2]; Groups I and II, doses from 0.3-3.6 mg", "value": "dose-related increase"},
      {"measurement": "Cmax", "setting": "[2]; male, human, plasma, inhaled, 2.4 mg", "value": 23.6, "unit": "ng/mL"},
      {"measurement": "dose with maximum 'disliking'", "setting": "[3]; Group I", "value": 2.4, "unit": "mg"},
      {"measurement": "dose with maximum psychoactivity ('feel the drug' scores) and highest mean 'liking' scores", "setting": "[3]; Group I", "value": 0.3, "unit": "mg"},
      {"measurement": "dose with maximum 'disliking' scores and maximum 'feel the drug' scores", "setting": "[3]; Group II", "value": 7.2, "unit": "mg"},
      {"measurement": "dose with maximum 'liking' scores", "setting": "[3]; Group II", "value": 3.6, "unit": "mg"},
      {"measurement": "subjective drug ratings, three scales", "setting": "[3]; Group III, 3.6 mg", "value": "difference between placebo and 3.6 mg"},
      {"measurement": "ARCI MBG, LSD and Amphetamine Scales", "setting": "[3]; in vivo", "value": "No significant results"},
      {"measurement": "subjects with slight conjunctiva congestion", "setting": "[4]; 1.2 mg, Day 12, 10 minutes after dosing", "value": "only one subject"},
      {"measurement": "time to resolution of conjunctiva congestion post-dose", "setting": "[4]; 1.2 mg, Day 12, one subject", "value": "≤ 4", "unit": "h"},
      {"measurement": "conjunctiva congestion, rest of the study", "setting": "[4]; Groups I and II (1.2 mg and 3.6 mg)", "value": "No other observation of conjunctiva congestion"},
      {"measurement": "FEV1, lowest result during the study", "setting": "[5]; one subject with below-normal pre-dose FEV1, Day 11, after six days of dosing with 1.2 mg", "value": 63, "unit": "%"},
      {"measurement": "FEV1 at the follow-up visit", "setting": "[5]; same single subject, 1.2 mg", "value": "58 % of predicted"}
    ]}
  ]
}
